Measured values taken from US12209102B2, “Heterocyclic compounds and uses thereof” (Kumquat Biosciences Inc., priority 2022, dated 2025).

Legend:
Type in all cases: biochemical
[1] = target: T1, K-Ras G12S (Homo sapiens, UniProt P01116, G12S); test: HTRF resonance energy transfer assay, K-Ras G12S / SOS1 interaction; details: HTRF assay of Example 5; read-out: IC50 against K-Ras G12S
T1 construct: made in house; host or cells: E. coli BL21 (DE3)
Excerpt: (§1) This assay can be also used to assess a selective inhibition or reduction of signaling output of a mutant Ras protein relative to a wildtype, or relative to a different mutant Ras protein. For example, the equilibrium interaction of wildtype Kras or K-Ras mutant (e.g., wildtype or a mutant thereof) with SOS1 (e.g., hSOS1) can be assessed as a proxy or an indication for a subject compound's ability to bind and inhibit Ras protein. HTRF assay detects from (i) a fluorescence resonance energy transfer (FRET) donor (e.g., antiGST-Europium) that is bound to GST-tagged K-Ras mutant to (ii) a FRET acceptor (e.g., anti-6His-XL665) bound to a His-tagged hSOS1.
(§2) The assay buffer can contain˜5 mM HEPES pH 7.4, ˜150 mM NaCl, ˜ 1 mM DTT, 0.05% BSA and 0.0025%(v/v) Igepal. A Ras working solution is prepared in an assay buffer containing typically a suitable amount of the protein construct (e.g., GST-tagged K-Ras mutant) and the FRET donor (e.g., antiGST-Eu(K) from Cisbio, France). A SOS1 working solution is prepared in an assay buffer containing suitable amount of the protein construct (e.g., His-hSOS1) and the FRET acceptor (e.g., anti-6His-XL665 from Cisbio, France). A suitable amount of the protein construct will depend on the range of activity or range of IC50 values being detected or under investigation. For detecting IC50 within a range of 500 nM, the protein constructs of the same range of molarity can be utilized.
(§3) A fixed volume of DMSO with or without test compound is transferred into a 384-well plate. Ras working solution is added to all wells of the test plate. SOS1 working solution is added to all wells except for those that are subsequently filled the inhibitor control solution. Upon incubation for about 10 minutes or longer, the fluorescence is measured with a M1000Pro plate reader (Tecan) using HTRF detection (excitation 337 nm, emission 1: 620 nm, emission 2: 665 nm). Compounds are tested in duplicates at different concentrations (for example, 10 μM, 2.5 μM, 0.63 μM, 0.16 μM, 0.04 μM, 0.01 μM test compound). The ratiometric data (i.e., emission 2 divided by emission 1) is used to calculate IC50 values against Ras using GraphPad Prism (GraphPad software). Following this general procedure, samples were tested with or without a subject compound disclosed herein including compounds exemplified in Table 1 to assess their abilities to inhibit a K-Ras mutant relative to another mutant or WT. Signaling output measured in terms of IC50 values can be obtained, a ratio of IC50 against one mutant relative to another mutant can be calculated. For instance, a selective reduction of K-Ras G12D signaling output can be evidenced by a ratio greater than one. In particular, a selective reduction of K-Ras G12D signaling relative to K-Ras WT signaling is evidenced as the ratio of IC50 (against K-Ras WT) to IC50 (against K-Ras G12D) is greater than 1.

[2] = target: T2, K-Ras G12V (Homo sapiens, UniProt P01116, G12V); test: HTRF resonance energy transfer assay, K-Ras G12V / SOS1 interaction; details: HTRF assay of Example 5; read-out: IC50 against K-Ras G12V
T2 construct: made in house; host or cells: E. coli BL21 (DE3)
T2 sequence (P01116 1-188 isoform P01116-2 G12V): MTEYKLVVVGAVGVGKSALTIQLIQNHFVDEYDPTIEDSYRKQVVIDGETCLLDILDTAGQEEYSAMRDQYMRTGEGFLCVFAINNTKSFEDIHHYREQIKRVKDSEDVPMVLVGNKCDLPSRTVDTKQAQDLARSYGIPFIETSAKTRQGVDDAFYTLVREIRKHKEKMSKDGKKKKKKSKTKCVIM
Excerpt: as §1, §2, §3

[3] = target: T3, K-Ras WT (Homo sapiens, UniProt P01116); test: HTRF resonance energy transfer assay, K-Ras WT / SOS1 interaction; details: HTRF assay of Example 5; read-out: IC50 against K-Ras WT
T3 construct: made in house; host or cells: E. coli BL21 (DE3)
T3 sequence (P01116 1-188 isoform P01116-2): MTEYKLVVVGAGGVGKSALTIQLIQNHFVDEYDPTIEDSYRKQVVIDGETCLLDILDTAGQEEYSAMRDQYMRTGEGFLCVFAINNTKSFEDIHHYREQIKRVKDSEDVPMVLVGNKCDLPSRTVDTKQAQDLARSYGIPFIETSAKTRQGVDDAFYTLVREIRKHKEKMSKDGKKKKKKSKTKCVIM
Excerpt: as §1, §2, §3

T1 sequence (P01116 1-188 isoform P01116-2 G12S): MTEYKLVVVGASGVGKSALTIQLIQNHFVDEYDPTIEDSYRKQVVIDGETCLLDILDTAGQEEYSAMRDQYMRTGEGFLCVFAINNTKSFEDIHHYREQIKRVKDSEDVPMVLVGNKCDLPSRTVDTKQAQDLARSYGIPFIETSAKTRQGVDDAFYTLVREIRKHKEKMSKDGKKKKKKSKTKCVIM

SMILES	IC50 [1] [nM]	IC50 [2] [nM]	IC50 [3] [nM]
N#Cc1c(N)sc2c(F)ccc(-c3c(Cl)c4c5c(nc(OC[C@@]67CCCN6C[C@H](F)C7)nc5c3F)N(CC(F)F)C(c3cnco3)CO4)c12 (single isomer, unassigned) [Compound 860]	< 100	< 100	< 100
N#Cc1c(N)sc2c(F)ccc(-c3c(Cl)c4c5c(nc(OC[C@@]67CCCN6C[C@H](F)C7)nc5c3F)N(CC(F)F)[C@H](CNC=O)CO4)c12 [Compound 627, N-(((5R)-9-(2-amino-3-cyano-7-fluorobenzo[b]thiophen-4-yl)-8-chloro-4-(2,2-difluoroethyl)-10-fluoro-2-(((2R,7aS)-2-fluorotetrahydro-1H-pyrrolizin-7a(5H)-yl)methoxy)-5,6-dihydro-4H-[1,4]oxazepino[5,6,7-de]quinazolin-5-yl)methyl)formamide]	< 100	< 100	
C=C(F)C1COc2c(Cl)c(-c3ccc(F)c4sc(N)c(C#N)c34)c(F)c3nc(OC[C@@]45CCCN4C[C@H](F)C5)nc(c23)N1CC(F)F (stereo partly drawn) [Compound 651, 2-amino-4-(8-chloro-4-(2,2-difluoroethyl)-10-fluoro-2-(((2R,7aS)-2-fluorotetrahydro-1H-pyrrolizin-7a(5H)-yl)methoxy)-5-(1-fluorovinyl)-5,6-dihydro-4H-[1,4]oxazepino[5,6,7-de]quinazolin-9-yl)-7-fluorobenzo[b]thiophene-3-carbonitrile]		< 100	
N#Cc1c(N)sc2c(F)ccc(-c3c(Cl)c4c5c(nc(OC[C@@]67CCCN6C[C@H](F)C7)nc5c3F)N(CC(F)F)C(C3CCN3C(=O)C3CN3)CO4)c12 (stereo partly drawn) [Compound 666, 2-amino-4-(5-(1-(aziridine-2-carbonyl)azetidin-2-yl)-8-chloro-4-(2,2-difluoroethyl)-10-fluoro-2-(((2R,7aS)-2-fluorotetrahydro-1H-pyrrolizin-7a(5H)-yl)methoxy)-5,6-dihydro-4H-[1,4]oxazepino[5,6,7-de]quinazolin-9-yl)-7-fluorobenzo[b]thiophene-3-carbonitrile]	< 100		< 100
N#Cc1c(N)sc2c(F)ccc(-c3c(Cl)c4c5c(nc(OC[C@@]67CCCN6C[C@H](F)C7)nc5c3F)N(CC(F)F)C(C3CN(C(=O)C5CN5)C3)CO4)c12 (stereo partly drawn) [Compound 762, 2-amino-4-(5-(1-(aziridine-2-carbonyl)azetidin-3-yl)-8-chloro-4-(2,2-difluoroethyl)-10-fluoro-2-(((2R,7aS)-2-fluorotetrahydro-1H-pyrrolizin-7a(5H)-yl)methoxy)-5,6-dihydro-4H-[1,4]oxazepino[5,6,7-de]quinazolin-9-yl)-7-fluorobenzo[b]thiophene-3-carbonitrile]	< 100	< 100	< 100
N#Cc1c(N)sc2c(F)ccc(-c3c(Cl)c4c5c(nc(OC[C@@]67CCCN6C[C@H](F)C7)nc5c3F)N(CC(F)F)[C@@H](CNC(=O)CC3COC3)CO4)c12 [Compound 766, N-(((5S)-9-(2-amino-3-cyano-7-fluorobenzo[b]thiophen-4-yl)-8-chloro-4-(2,2-difluoroethyl)-10-fluoro-2-(((2R,7aS)-2-fluorotetrahydro-1H-pyrrolizin-7a(5H)-yl)methoxy)-5,6-dihydro-4H-[1,4]oxazepino[5,6,7-de]quinazolin-5-yl)methyl)-2-(oxetan-3-yl)acetamide]	< 100	< 100	< 100
N#Cc1c(N)sc2c(F)ccc(-c3c(Cl)c4c5c(nc(OC[C@@]67CCCN6C[C@H](F)C7)nc5c3F)N(CC(F)F)C(c3cncs3)CO4)c12 (stereo partly drawn) [Compound 789, 2-amino-4-(8-chloro-4-(2,2-difluoroethyl)-10-fluoro-2-(((2R,7aS)-2-fluorotetrahydro-1H-pyrrolizin-7a(5H)-yl)methoxy)-5-(thiazol-5-yl)-5,6-dihydro-4H-[1,4]oxazepino[5,6,7-de]quinazolin-9-yl)-7-fluorobenzo[b]thiophene-3-carbonitrile]	< 100	< 100	< 100
N#Cc1c(N)sc2c(F)ccc(-c3c(Cl)c4c5c(nc(OC[C@@]67CCCN6C[C@H](F)C7)nc5c3F)N(C3C5CC3N(C(=O)C(F)F)C5)CCO4)c12 (stereo partly drawn) [Compound 886, 2-amino-4-(8-chloro-4-(2-(2,2-difluoroacetyl)-2-azabicyclo[2.1.1]hexan-5-yl)-10-fluoro-2-(((2R,7aS)-2-fluorotetrahydro-1H-pyrrolizin-7a(5H)-yl)methoxy)-5,6-dihydro-4H-[1,4]oxazepino[5,6,7-de]quinazolin-9-yl)-7-fluorobenzo[b]thiophene-3-carbonitrile]	< 100		< 100
N#Cc1c(N)sc2c(F)ccc(-c3c(Cl)c4c5c(nc(OC[C@@]67CCCN6C[C@H](F)C7)nc5c3F)N(CC(F)F)C(C3CCCN3C(=O)[C@H]3CN3)CO4)c12 (stereo partly drawn) [Compound 1007, 2-amino-4-(5-(1-((R)-aziridine-2-carbonyl)pyrrolidin-2-yl)-8-chloro-4-(2,2-difluoroethyl)-10-fluoro-2-(((2R,7aS)-2-fluorotetrahydro-1H-pyrrolizin-7a(5H)-yl)methoxy)-5,6-dihydro-4H-[1,4]oxazepino[5,6,7-de]quinazolin-9-yl)-7-fluorobenzo[b]thiophene-3-carbonitrile]			< 100
CC(OC(F)F)C12CC(N3CCOc4c(Cl)c(-c5ccc(F)c6sc(N)c(C#N)c56)c(F)c5nc(OC[C@@]67CCCN6C[C@H](F)C7)nc3c45)(C1)C2 (stereo partly drawn) [Compound 1081, 2-amino-4-(8-chloro-4-(3-(1-(difluoromethoxy)ethyl)bicyclo[1.1.1]pentan-1-yl)-10-fluoro-2-(((2R,7aS)-2-fluorotetrahydro-1H-pyrrolizin-7a(5H)-yl)methoxy)-5,6-dihydro-4H-[1,4]oxazepino[5,6,7-de]quinazolin-9-yl)-7-fluorobenzo[b]thiophene-3-carbonitrile]	< 100	< 100	< 100
N#Cc1c(N)sc2c(F)ccc(-c3c(Cl)c4c5c(nc(OC[C@@]67CCCN6C[C@H](F)C7)nc5c3F)N(CC(F)F)[C@H](C(F)F)CO4)c12 [Compound 1099, 2-amino-4-((S)-8-chloro-4-(2,2-difluoroethyl)-5-(difluoromethyl)-10-fluoro-2-(((2R,7aS)-2-fluorotetrahydro-1H-pyrrolizin-7a(5H)-yl)methoxy)-5,6-dihydro-4H-[1,4]oxazepino[5,6,7-de]quinazolin-9-yl)-7-fluorobenzo[b]thiophene-3-carbonitrile]	< 100	< 100	< 100
C[C@@H](O)[C@@H]1COc2c(Cl)c(-c3ccc(F)c4sc(N)c(C#N)c34)c(F)c3nc(OC[C@@]45CCCN4C[C@H](F)C5)nc(c23)N1CC(F)F [Compound 1111, 2-amino-4-((5S)-8-chloro-4-(2,2-difluoroethyl)-10-fluoro-2-(((2R,7aS)-2-fluorotetrahydro-1H-pyrrolizin-7a(5H)-yl)methoxy)-5-((R)-1-hydroxyethyl)-5,6-dihydro-4H-[1,4]oxazepino[5,6,7-de]quinazolin-9-yl)-7-fluorobenzo[b]thiophene-3-carbonitrile]		< 100	
C[C@@H]1CC(CO)Oc2c(Cl)c(-c3ccc(F)c4sc(N)c(C#N)c34)c(F)c3nc(OC[C@@]45CCCN4C[C@H](F)C5)nc(c23)N1 (stereo partly drawn) [Compound 1210, 2-amino-4-((5R)-9-chloro-11-fluoro-2-(((2R,7aS)-2-fluorotetrahydro-1H-pyrrolizin-7a(5H)-yl)methoxy)-7-(hydroxymethyl)-5-methyl-4,5,6,7-tetrahydro-[1,5]oxazocino[4,3,2-de]quinazolin-10-yl)-7-fluorobenzo[b]thiophene-3-carbonitrile]		< 100	
